Experimental data: patent publication US20250339531A1, “DUX4 POLYPEPTIDES AND NUCLEIC ACIDS FOR TREATING INFLAMMATORY AND AUTOIMMUNE CONDITIONS” (Fred Hutchinson Cancer Center, priority 2021, published 2025)
Entries after “also recorded” stand apart in the source; their conditions may differ.

What was measured:
[1] = test system: in vitro translated STAT1; assay: In vitro translation and anti-FLAG immunoprecipitation; type: binding; details: rabbit reticulocyte lysate proteins, ± JAK1 kinase; listed as DUX4-CTD
Description: In vitro translated proteins were prepared using the TnT Quick Coupled Transcription Translation System (Promega, L2080) for the SP6 promoter on the pCS2-3×MYC-STAT1, pCS2-3×MYC-STAT1-S727E, pCS2-3×FLAG-DUX4aa154-424, and pCS2-3×FLAG-DUXB plasmids. To phosphorylate the 3×MYC-STAT1 and 3×MYC-STAT1-S727E proteins at Y701, 20 μL of the TnT reaction was mixed with 8 μL of 5× Kinase Buffer A (ThermoFisher, Cat #PV3189), 4 uL 10 mM ATP (ThermoFisher, Cat #PV3227), 0.4 ug recombinant JAK1 kinase (ThermoFisher, Cat #PV4774), and then nuclease-free ddH2O to a final volume of 40 μL and incubated for 1 hour at 30° C. The same procedure was used for treatment of 3×FLAG-DUX4-CTD with JAK1 kinase. For IPs, the in vitro translated proteins were mixed and incubated for 15 minutes in a 37° C. water bath. 0.3 mL of ice-cold in vitro IP buffer [20 mM Tris-HCl pH 7.5, 137 mM NaCl, 1 mM EDTA, 0.1% Tween20, 5% glycerol, adjusted to pH 7.4] was added to each sample and then 50 μL of Dynabeads Protein G bound to mouse IgG1 anti-FLAG [M2] (F3165) and incubated for 3 hours at 4° C. with gentle rotation. After immunoprecipitation of FLAG-tagged constructs, each sample was washed 3 times with 1 mL of ice-cold in vitro IP buffer in a 4° C. room. […]

[2] = test system: MHC class I proteins (HLA-A/B/C); assay: Immunoblot of IFNG-induced MHC class I protein, continuous or pulsed protocol, MB135 myoblasts; type: cell-based, human; details: MB135 cells; for suppression of IFNG-induced MHC class I protein, pulsed protocol: 4 h doxycycline pulse, IFNG added later for 16 h; for suppression of IFNG-induced MHC class I protein, continuous protocol: doxycycline 20 h, IFNG last 16 h
Description: In the “continuous” protocol (similar to the experiments shown in the prior FIGS. 1, 2, 4, 5, and 6), doxycycline is added to induce DUX4 expression at time 0 and four hours later IFNG is added for an additional 16 hours, resulting in 20 hours of continuous DUX4 induction with the last 16 hrs exposed to IFNG.
In the “pulsed” protocol, doxycycline is added at time 0 to induce DUX4 expression, but after four hours the media is changed to remove the doxycycline, resulting in a pulse of DUX4 mRNA and protein sufficient to induce DUX4 target gene expression (see Resnick et al., Cell Rep. 2019 Nov. 12; 29(7):1812-1820.e5). IFNG is added at 28 hours for a period of 16 hours prior to harvesting the cells. […] This difference is not likely to be due to different amounts of the DUX4 and mutant DUX4 proteins because at the time of harvest both DUX4 and the F67A mutant DUX4 protein levels have declined to similarly low amounts relative to the continuous protocol, but could be due to the activation of DUX4 target genes by the full-length DUX4 since the H3.X/Y proteins show persistent expression in the pulsed protocol.
(§1) Protein samples were harvested in RIPA buffer [150 mM NaCl, 1% NP-40, 0.5% Na-deocycholate, 1% SDS, 25 mM Tris-HCl pH7.4] supplemented with protease and phosphatase inhibitor tablets (Pierce), followed by sonication in Diagenode Bioruptor. Lysate was cleared by centrifugation at 16000×g and quantified using a Pierce BCA assay (Thermo Fisher Scientific). Samples were run on NuPAGE precast polyacrylamide gels (Invitrogen) and transferred to PVDF membrane. Membranes were blocked in PBS containing 0.1% Tween-20 and 5% non-fat dry milk before overnight incubation at 4° C. with primary antibodies (see resource table for a list of antibodies used in this study). Membranes were incubated with horseradish peroxidase-conjugated secondary antibodies for 1 hour at room temperature and SuperSignal chemiluminescent substrate (Thermo Scientific) was used for detection on film with a Mini-medical 90 processor. Membranes were stripped with Restore Western Blot Stripping Buffer (Pierce).

T-cell activation = assay: Activation of NYESO TCR-engineered T cells by NYESO expressing MEL375 cells (IFNG and IL-2 secretion); type: cell-based, human; details: pulse-expression 24 hrs prior to T-cell addition
Source text: To determine whether the combined short- and long-term mechanisms of MHC protein expression in response to cytokine signaling is sufficient to prevent T-cell activation, NYESO expressing MEL375 cells were used in an assay with T-cells engineered with the TCR (T Cell Receptor) for the NYESO antigen and measured T-cell activation by secretion of IFNG and IL-2.

HLA-E = assay: Immunoblot of non-canonical MHC class I HLA-E; type: cell-based, human; details: MB135iDUX4 cells
Description: as §1

longCTD: 3×FLAG tag and nls in frame with carboxyterminal 271 amino acids of DUX4 (aa154-424), SEQ ID NOS: 8-9
interaction with in vitro translated STAT1 [1]: did not interact with in vitro translated STAT1; also recorded: does not co-immunoprecipitate with in vitro translated/phosphorylated STAT1

DUX4: human DUX4 protein SEQ ID NO:3 expressed from doxycycline inducible codon altered transgene SEQ ID NO:2
suppression of IFNG-induced MHC class I protein, pulsed protocol [2]: more profound suppression of the MHC class I proteins; also recorded: even more effectively in the pulsed protocol; also recorded: elicited the same degree of suppression when assayed forty-four hours later; also recorded: suppressed HLA-A/B/C proteins even a day later
suppression of IFNG-induced MHC class I protein, pulsed protocol ([2]; listed as full-length DUX4): suppresses MHC class I expression as well, or slightly better, in the pulsed protocol than in the continuous protocol
suppression of IFNG-induced MHC class I protein, pulsed protocol ([2]; listed as wildtype DUX4): suppressed MHC-I and immunoproteasome subunits
suppression of IFNG-induced MHC class I protein, continuous protocol [2]: modest suppression of MHC class I protein; also recorded: suppresses MHC class I proteins; also recorded: IFNG-induction of MHC-I and the immunoproteasome was suppressed; also recorded: MHC class I induction, but not HLA-E is blocked
suppression of IFNG-induced MHC class I protein, continuous protocol ([2]; listed as full-length DUX4): suppress the IFNG induction of MHC class I expression
suppression of IFNG-induced MHC class I protein, continuous protocol ([2]; listed as wildtype DUX4): suppressed IFNG-induced MHC-I and the immunoproteasome expression
T-cell activation (IFNG and IL-2 secretion) (T-cell activation): completely blocks the T-cell activation by the NYESO expressing MEL375 cells
effect on IFNG-induced HLA-E protein (HLA-E): does not suppress the noncanonical MHC class E (HLA-E); also recorded: maintaining HLA-E in multiple cell types
